Test results published in publication PMC11596928, “Substrate-Induced Structural Dynamics and Evolutionary Linkage of Siderophore-Iron ABC Transporters of Mycobacterium tuberculosis” (Medicina, 2024).

Molecular target: ATPase II (rATPase II), ATPase domain of IrtB (Mycobacterium tuberculosis, UniProt P9WQJ7)
Sequence (P9WQJ7 313-579): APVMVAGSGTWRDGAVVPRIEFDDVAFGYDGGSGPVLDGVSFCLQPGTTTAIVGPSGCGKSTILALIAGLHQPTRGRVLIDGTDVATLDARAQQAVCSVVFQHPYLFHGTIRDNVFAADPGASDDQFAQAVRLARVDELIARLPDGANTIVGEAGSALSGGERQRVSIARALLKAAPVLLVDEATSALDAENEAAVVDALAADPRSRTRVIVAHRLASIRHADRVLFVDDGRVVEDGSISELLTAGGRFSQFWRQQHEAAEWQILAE

Nc1ncnc2c1ncn2[C@@H]1O[C@H](COP(=O)(O)OP(=O)(O)OP(=O)(O)O)[C@@H](O)[C@H]1O [ATP]
analytical gel filtration (ATP-dependent dimerization): ATPase II (the ATPase belonging to IrtB) dimers were captured as stable dimers
